This is an account of results in US8895004B2 (priority 2007, dated 2014).

Experiment [1] deals with cells predominantly expressing presynaptic N-type calcium channels. It counts as cell-based, rat.
In the next experiment the test system is hippocampal slice. As to the kind of experiment: Spontaneous synaptic currents in acute hippocampal slice, CA1 pyramidal cells. It is filed as cell-based. The settings on record: mouse slice. As to the method:
400 μm thick slices were prepared from freshly dissected hippocampi of the mouse using a method known per se (Dingledine R. Brain Slices. New York: Plenum Press, 1983).

The subject of experiment [2] is cultured hippocampal neurons. It counts as cell-based, rat.
A further experiment concerns GABAA receptors. It counts as cell-based, rat.
Experiment [3] addresses T1, P/Q-type calcium channels (Rattus norvegicus, UniProt P54282).
T1 construct: Typical P/Q channel-mediated currents could be reliably elicited in somatic whole-cell recordings under our culture conditions; endogenous in cells; host or cells: cultured hippocampal neurons
It is filed as cell-based.

For a further experiment, the system named is L-type calcium currents. It is filed as cell-based, rat.
The subject of experiment [4] is cultured hippocampal neurons. Kind of experiment: sPSC frequency at 1 mM and 4 mM extracellular Ca2+ after Aβ(1-42) globulomer. It counts as cell-based. As to the method:
Spontaneous synaptic activity was measured in cultured hippocampal neurons using whole-cell voltage clamp techniques (Vhold=−70 mV). Under the ionic conditions used (ECl˜−10 mV) all synaptic events appeared as inward currents.
Currents recorded prior to the addition of the globulomer served as control describing basal synaptic transmission. Currents recorded in the interval immediately after application were analysed with respect to the control data. Afterwards, extracellular Ca^2+ was elevated from 1 mM to 4 mM (leaving the concentration of globulomer unchanged). Currents in the following 5 min recording interval were again analysed with respect to control data.

Experiment [5] relates to cultured hippocampal neurons.
In experiment [6] the test system is hippocampal slice cultures. Kind of experiment: Evoked synaptic transmission in hippocampal slice cultures after overnight incubation. To be noted: globulomer approx. 1 μM monomer.
[7] abbreviates: globulomer, after elevation of Ca2+ to 4 mM.

Like-named read-outs stand apart in the source and are kept apart here.

T1 sequence (Q8CFG6 19-1157): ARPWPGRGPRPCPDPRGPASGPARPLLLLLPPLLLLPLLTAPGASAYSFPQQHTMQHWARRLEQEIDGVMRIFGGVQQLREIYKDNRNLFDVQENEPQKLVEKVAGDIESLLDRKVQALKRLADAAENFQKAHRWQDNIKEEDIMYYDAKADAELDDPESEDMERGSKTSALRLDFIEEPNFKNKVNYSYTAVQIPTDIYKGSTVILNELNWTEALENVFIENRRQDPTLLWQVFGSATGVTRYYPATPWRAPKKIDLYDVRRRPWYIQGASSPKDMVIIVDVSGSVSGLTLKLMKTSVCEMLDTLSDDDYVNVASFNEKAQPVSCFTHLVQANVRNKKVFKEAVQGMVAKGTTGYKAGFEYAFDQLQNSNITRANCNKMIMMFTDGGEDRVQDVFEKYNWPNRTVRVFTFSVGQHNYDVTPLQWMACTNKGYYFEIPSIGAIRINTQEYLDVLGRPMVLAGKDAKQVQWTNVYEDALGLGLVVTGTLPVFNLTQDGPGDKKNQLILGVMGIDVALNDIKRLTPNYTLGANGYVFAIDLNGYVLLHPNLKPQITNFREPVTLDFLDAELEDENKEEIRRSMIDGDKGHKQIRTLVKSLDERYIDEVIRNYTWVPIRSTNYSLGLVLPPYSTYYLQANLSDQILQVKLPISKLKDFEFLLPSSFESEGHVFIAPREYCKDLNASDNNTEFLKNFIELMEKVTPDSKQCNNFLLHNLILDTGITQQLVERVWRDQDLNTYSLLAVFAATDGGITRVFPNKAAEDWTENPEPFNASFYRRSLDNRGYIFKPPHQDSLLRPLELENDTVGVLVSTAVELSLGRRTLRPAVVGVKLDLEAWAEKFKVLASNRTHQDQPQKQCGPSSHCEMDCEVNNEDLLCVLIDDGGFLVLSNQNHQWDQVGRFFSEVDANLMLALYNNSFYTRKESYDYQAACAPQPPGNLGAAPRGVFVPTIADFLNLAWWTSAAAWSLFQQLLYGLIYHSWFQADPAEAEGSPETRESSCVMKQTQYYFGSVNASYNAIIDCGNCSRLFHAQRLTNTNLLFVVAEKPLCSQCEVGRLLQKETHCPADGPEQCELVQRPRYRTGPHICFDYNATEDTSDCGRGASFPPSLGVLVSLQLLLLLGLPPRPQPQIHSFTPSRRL
T1 sequence (P54282 whole entry): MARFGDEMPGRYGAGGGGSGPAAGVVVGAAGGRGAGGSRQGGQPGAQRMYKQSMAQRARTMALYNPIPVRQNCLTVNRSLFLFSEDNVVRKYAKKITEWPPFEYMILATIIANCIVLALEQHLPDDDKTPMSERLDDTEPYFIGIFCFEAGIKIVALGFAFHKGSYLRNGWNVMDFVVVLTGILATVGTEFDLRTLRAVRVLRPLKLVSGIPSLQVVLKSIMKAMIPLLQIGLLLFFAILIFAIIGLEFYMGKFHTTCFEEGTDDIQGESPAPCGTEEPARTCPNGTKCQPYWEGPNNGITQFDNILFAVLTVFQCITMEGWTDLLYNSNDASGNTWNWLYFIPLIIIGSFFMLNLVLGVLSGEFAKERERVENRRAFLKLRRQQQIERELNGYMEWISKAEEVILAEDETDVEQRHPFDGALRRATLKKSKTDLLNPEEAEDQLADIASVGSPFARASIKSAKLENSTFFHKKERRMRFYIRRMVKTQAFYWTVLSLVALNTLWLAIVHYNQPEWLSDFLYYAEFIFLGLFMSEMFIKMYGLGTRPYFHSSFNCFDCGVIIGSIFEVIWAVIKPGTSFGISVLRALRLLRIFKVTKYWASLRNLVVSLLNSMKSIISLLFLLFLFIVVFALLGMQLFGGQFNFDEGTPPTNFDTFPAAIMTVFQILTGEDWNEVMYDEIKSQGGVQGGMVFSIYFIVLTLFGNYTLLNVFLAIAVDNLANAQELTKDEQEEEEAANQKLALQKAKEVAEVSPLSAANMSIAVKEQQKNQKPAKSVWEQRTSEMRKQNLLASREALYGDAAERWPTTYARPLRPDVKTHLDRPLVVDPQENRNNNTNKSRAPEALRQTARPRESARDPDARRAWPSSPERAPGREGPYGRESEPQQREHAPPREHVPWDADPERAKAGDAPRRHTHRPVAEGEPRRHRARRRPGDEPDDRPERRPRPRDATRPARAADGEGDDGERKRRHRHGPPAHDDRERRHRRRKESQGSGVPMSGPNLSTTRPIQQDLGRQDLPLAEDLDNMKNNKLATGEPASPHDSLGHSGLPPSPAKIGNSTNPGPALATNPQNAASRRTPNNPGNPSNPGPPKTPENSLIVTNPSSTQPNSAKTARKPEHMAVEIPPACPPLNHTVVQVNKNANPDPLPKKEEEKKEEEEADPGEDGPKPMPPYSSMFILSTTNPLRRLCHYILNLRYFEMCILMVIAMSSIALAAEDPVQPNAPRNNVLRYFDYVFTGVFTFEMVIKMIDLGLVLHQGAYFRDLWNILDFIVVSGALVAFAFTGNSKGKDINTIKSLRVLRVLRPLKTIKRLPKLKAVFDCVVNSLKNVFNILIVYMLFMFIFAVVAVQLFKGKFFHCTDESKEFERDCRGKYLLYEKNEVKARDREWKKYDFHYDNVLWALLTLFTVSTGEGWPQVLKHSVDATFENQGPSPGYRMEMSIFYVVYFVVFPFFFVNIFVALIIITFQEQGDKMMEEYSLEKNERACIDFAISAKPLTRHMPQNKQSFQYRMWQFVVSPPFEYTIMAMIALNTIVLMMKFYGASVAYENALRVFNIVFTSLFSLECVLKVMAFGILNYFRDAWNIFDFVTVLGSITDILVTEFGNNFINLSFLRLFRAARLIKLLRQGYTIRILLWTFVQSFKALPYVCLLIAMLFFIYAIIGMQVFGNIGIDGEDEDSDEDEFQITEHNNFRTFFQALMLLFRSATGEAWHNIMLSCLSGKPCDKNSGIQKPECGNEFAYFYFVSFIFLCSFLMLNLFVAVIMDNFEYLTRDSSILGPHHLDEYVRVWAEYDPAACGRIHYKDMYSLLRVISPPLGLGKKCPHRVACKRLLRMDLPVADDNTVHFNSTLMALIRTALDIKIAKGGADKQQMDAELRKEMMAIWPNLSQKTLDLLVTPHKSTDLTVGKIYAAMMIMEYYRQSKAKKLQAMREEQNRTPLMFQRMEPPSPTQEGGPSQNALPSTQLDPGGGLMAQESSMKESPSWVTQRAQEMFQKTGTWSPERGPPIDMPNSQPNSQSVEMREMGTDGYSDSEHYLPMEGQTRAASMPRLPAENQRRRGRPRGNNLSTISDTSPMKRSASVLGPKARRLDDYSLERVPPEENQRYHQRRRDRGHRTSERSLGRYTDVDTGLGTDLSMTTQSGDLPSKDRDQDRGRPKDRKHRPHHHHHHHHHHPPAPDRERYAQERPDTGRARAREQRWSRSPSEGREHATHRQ
T1 sequence (P54283 whole entry, further chain): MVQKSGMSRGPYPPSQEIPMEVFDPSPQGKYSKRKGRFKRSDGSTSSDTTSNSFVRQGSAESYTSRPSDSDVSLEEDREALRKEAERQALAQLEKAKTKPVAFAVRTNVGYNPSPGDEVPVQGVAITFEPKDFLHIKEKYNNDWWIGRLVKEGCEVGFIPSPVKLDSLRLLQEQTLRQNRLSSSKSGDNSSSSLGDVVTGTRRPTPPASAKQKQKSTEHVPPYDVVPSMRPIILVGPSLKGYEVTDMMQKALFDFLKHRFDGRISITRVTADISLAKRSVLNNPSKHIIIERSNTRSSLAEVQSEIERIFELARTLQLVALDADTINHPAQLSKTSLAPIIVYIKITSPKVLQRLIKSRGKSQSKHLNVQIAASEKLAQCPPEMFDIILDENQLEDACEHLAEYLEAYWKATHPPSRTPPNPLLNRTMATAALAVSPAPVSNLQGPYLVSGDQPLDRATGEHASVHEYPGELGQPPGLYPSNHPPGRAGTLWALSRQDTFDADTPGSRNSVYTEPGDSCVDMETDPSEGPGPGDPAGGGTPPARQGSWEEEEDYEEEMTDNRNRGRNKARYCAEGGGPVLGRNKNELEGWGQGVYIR

In the case of “Aβ(1-42) globulomer: soluble, globular, non-covalent association of Aβ(1-42) peptides, apparent molecular weight 38/48 kDa, obtained as in Example 6b of WO2004/067561”, the “spontaneous synaptic activity (frequency and amplitude) in N-dominated cells” value in [1] is listed as “does not impair spontaneous synaptic activity”. Further, the “inhibition mechanism in hippocampal slice” value in the experiment with hippocampal slice is “also valid in situ”. Besides, in [2], the “amplitude of the AP (baseline to peak)” value is 110.9±16.7 mV, the half-width time amounted to 4.0 ± 2.9 ms, the input resistance is on record as 131.6±13.7 MΩ and the “maximal rate of repolarization” value is recorded as 47.4±19.3 V/s. Moreover, in [2], the “maximal rate of rise” value worked out at 84.2±50.0 V/s and the threshold for firing is on record as −24.2±9.8 mV. For the same substance, the GABA-induced inward currents result with GABAA receptors was “unaltered”. Moreover, in experiment [3], the “amplitude of P/Q-type currents” value is recorded as 62±7 % of control, the “maximal conductance (gmax)” value was determined as 27.2±3.2 nS, the “reversibility of P/Q-type current reduction” value was “partially reversible” and the “slope Vc of steady-state activation” value is reported as −10.8±0.5 mV. In addition, in experiment [3], the “slope Vc of steady-state inactivation” value is −12.6±1.1 mV, the “steady-state activation Vh” value is −17.3±1.3 mV and the “voltage at half-maximal inactivation” value came out at 32.4±1.2 mV. Further, in the experiment with L-type calcium currents, the “L-type calcium current amplitude” value is listed as 573.0±225.6 pA. In addition, in experiment [4] (1 mM Ca2+, globulomer), the “median amplitude of sPSCs” value came to 97±5%. Moreover, the sPSC frequency in experiment [4] (1 mM Ca2+, globulomer approx. 1 μM monomer) is listed as 63±7 % of control. Moreover, in experiment [4] (setting [7]), the “median amplitude of sPSCs” value came out at 98±6% and the sPSC frequency is recorded as 77±13 % of control. In [5], the “amplitude of mEPSCs” value was 96±3 % of control, the “amplitude of spontaneous EPSCs” value is reported as 79±4 % of control, the “amplitude of spontaneous EPSCs during washout” value was 96±6% and the “amplitude of spontaneous IPSCs after withdrawal” value came to 94±2%. In [5], the “amplitude of synaptic currents after pre-incubation with ω-Agatoxin IVA” value worked out at 102±7, the “frequency of mIPSCs” value was 52±10 % of control, the “frequency of mIPSCs after washout” value is recorded as 68±12 % of control and the “frequency of mPSCs” value is 56±9 % of control. In addition, in experiment [5], the “frequency of mPSCs after washout” value was 77±7.6 % of control, the “frequency of miniature EPSCs” value is on record as 57±9 % of control, the “frequency of miniature EPSCs after wash-out” value is recorded as 54±8% and the “frequency of sPSCs after washout” value was determined as 61±16%. Also, in experiment [5], the “frequency of spontaneous EPSCs” value was 14±4 % of control, the “frequency of spontaneous EPSCs during washout” value is listed as 52±19 % of control, the “frequency of spontaneously occurring IPSCs” value was 64±5 % of control and the “frequency of synaptic currents after pre-incubation with ω-Agatoxin IVA” value came out at 108±15%. In experiment [5], the mIPSC amplitude is 81±6 % of control, the “mIPSC amplitude after washout” value was 85±6%, the “median amplitude of mPSCs” value was found to be 30.2±5.2 pA and the “median amplitude of spontaneous IPSCs” value is recorded as 82±2 % of control. Further, in experiment [6], the evoked synaptic transmission entry is given as “strongly suppresses synaptic transmission”.
For the substance “monomeric Aβ(1-42): synthetic monomeric Aβ(1-42) peptide (H-1368; Bachem) dissolved in 0.1% NaOH; likely a mixture of aggregation states”, in [5] (1 μM monomer, TTX), the “frequency of mPSCs” value is 87±3 % of control and the “median amplitude of mPSCs” value is given as 33.7±3.0 pA.
“ω-agatoxin IVA (KKKCIAKDYGRCKWGGTPCCRGRGCICSIMGTNCECKPRLIMEGLGLA)”: in [1], the “spontaneous synaptic activity (frequency and amplitude) in N-dominated cells” value was “does not impair spontaneous synaptic activity”.
